The source of these data is ChEMBL document CHEMBL3763064, “Discovery of silyl proline containing HCV NS5A inhibitors with pan-genotype activity: SAR development” (Bioorg Med Chem Lett, 2016).

The structures appear in SMILES notation. pEC50: −log10 of the molar value.

For data set [1], the system named is Hepatitis C virus. The experiment in a line: Antiviral activity against HCV genotype 1a by replicon assay. The data set is classed as functional, organism-based, Hepacivirus hominis. The settings on record: subtype 1a. A general note: In antiviral work, replicon cells carry a viral genome segment that copies itself.
In data set [2] the test system is Hepatitis C virus. Put plainly: Antiviral activity against HCV genotype 1a expressing NS5A Y93H mutant by replicon assay. The format is functional, organism-based, Hepacivirus hominis. The settings on record: subtype 1a.
Data set [3] relates to Hepatitis C virus. Put plainly: Antiviral activity against HCV genotype 2a by replicon assay. The format is functional, organism-based, Hepacivirus hominis.
The nature of data set [4]: Half life in iv dosed Sprague-Dawley rat. The format is ADME, organism-based. The settings on record: in vivo.
Data set [5] has as its system Hepatitis C virus. Put plainly: Antiviral activity against HCV genotype 3a by replicon assay. The data set is classed as functional, organism-based, Hepacivirus hominis.
The next data set relates to Rattus norvegicus. The experiment in a line: AUC in Sprague-Dawley rat at 5 mg/kg, po. The settings on record: in vivo. The data set is classed as ADME, organism-based.
Data set [6] relates to Hepatitis C virus. The experiment in a line: Antiviral activity against HCV genotype 1b by replicon assay. The format is functional, organism-based, Hepacivirus hominis.
In data set [7] the test system is Hepatitis C virus. The experiment in a line: Antiviral activity against HCV genotype 2b by replicon assay. The data set is classed as functional, organism-based, Hepacivirus hominis.
In data set [8] the target is T1, Nuclear receptor subfamily 1 group I member 2 (Homo sapiens, UniProt O75469).
T1 sequence (O75469 whole entry): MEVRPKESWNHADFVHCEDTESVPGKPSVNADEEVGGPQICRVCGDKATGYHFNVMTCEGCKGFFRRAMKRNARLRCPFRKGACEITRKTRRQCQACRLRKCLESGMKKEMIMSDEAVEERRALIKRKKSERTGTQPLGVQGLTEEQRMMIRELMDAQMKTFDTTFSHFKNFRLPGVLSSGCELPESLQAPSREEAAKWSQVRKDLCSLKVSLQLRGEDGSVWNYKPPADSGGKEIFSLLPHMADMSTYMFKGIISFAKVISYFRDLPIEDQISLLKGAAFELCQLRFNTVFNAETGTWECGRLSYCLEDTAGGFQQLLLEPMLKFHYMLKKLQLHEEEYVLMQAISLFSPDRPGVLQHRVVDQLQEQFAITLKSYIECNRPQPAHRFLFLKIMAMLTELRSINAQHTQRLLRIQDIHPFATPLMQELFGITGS
The experiment in a line: Activation of PXR (unknown origin). The data set is classed as ADME.

For `COC(=O)N[C@H](C(=O)N1CCC[C@H]1c1ncc(-c2ccc(-c3ccc4c(ccc5nc([C@@H]6C[Si](C)(C)CN6C(=O)[C@@H](NC(=O)OC)C(C)C)[nH]c54)c3)cc2)[nH]1)C(C)C`, the negative-log EC50 (pEC50) is 11.52 with Hepatitis C virus [1]; 7.46 in the data set with Hepatitis C virus [2]; 11.40 in the data set on Hepatitis C virus [3]; 9.59 in the data set on Hepatitis C virus [5]; 11.40 with Hepatitis C virus [6]. This compound showed a half-life in data set [4] of 6.6 h. In the data set with Rattus norvegicus, the AUC is 3.2 uM.hr/ml.

In the data set with Hepatitis C virus [2], `COC(=O)N[C@H](C(=O)N1C[Si](C)(C)C[C@H]1c1ncc(-c2ccc(-c3ccc4c(ccc5nc([C@@H]6CC(F)(F)CN6C(=O)[C@@H](NC(=O)OC)C(C)C)[nH]c54)c3)cc2)[nH]1)C(C)C` showed a pEC50 of 7.19. The compound further showed a half-life in data set [4] of 6.7 h. Besides, the AUC in the data set on Rattus norvegicus is 7.6 uM.hr/ml.

For the compound `COC(=O)N[C@H](C(=O)N1C[Si](C)(C)C[C@H]1c1ncc(-c2ccc(-c3ccc4c(ccc5nc([C@@H]6CCCN6C(=O)[C@@H](NC(=O)OC)C(C)C)[nH]c54)c3)cc2)[nH]1)C(C)C`, the pEC50 with Hepatitis C virus [1] was 10.85; in the data set with Hepatitis C virus [2], 7.02; in the data set on Hepatitis C virus [3] it was 10.70; with Hepatitis C virus [5], 10.30; in the data set on Hepatitis C virus [6], 11.52.

As for `COC(=O)N[C@H](C(=O)N1CCC[C@H]1c1ncc(-c2ccc(-c3cc4cc(-c5cnc([C@@H]6CCCN6C(=O)[C@@H](NC(=O)OC)C(C)C)[nH]5)ccc4o3)cc2)[nH]1)C(C)C`, the pEC50 in the data set with Hepatitis C virus [1] is 11.00; in the data set on Hepatitis C virus [2], 7.62; with Hepatitis C virus [7] it was 6.54; in the data set with Hepatitis C virus [3] it was 9.40; in the data set with Hepatitis C virus [5], 8.40; with Hepatitis C virus [6] it was 12.00. The compound also gave a pEC50 in [8] of 5.48.

Consider `COC(=O)N[C@H](C(=O)N1CC(F)(F)C[C@H]1c1ncc(-c2ccc(-c3ccc4c(ccc5nc([C@@H]6C[Si](C)(C)CN6C(=O)[C@@H](NC(=O)OC)C(C)C)[nH]c54)c3)cc2)[nH]1)C(C)C`, for which the pEC50 in the data set with Hepatitis C virus [1] was 10.82; in the data set with Hepatitis C virus [2], 7.34. Moreover, in the data set on Rattus norvegicus, the AUC was 5 uM.hr/ml.

What is called pEC50 is the EC50 on a negative log10 scale, so that one unit is a factor of ten. For orientation: half-life means how long it takes for the measured level to halve. High values mean slow decline, low ones rapid decline.
